System: 786-0 complex spheroids with HUVEC/MSC, growth % test/control
Experiment: Anticancer human tumor 786-0 cell line growth inhibition [AhR];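 also: compound exposure lasted seven days before the read-out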
Details: for IC50: curve of first compound; for viability, T/C: stronger effect = lower value
How it was run: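 Spheroids combined tumor cells with HUVEC endothelial cells and human MSCs as stroma. AhR antagonists were paired with standard or investigational drugs, each dosed in half-log steps down from near clinical Cmax, or from 10 microM where Cmax was unknown.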

[1] = second compound 0.1 µM, first compound 0.0316 µM
[2] = second compound 0.1 µM, first compound 0.1 µM
[3] = second compound 0.1 µM, first compound 0.316 µM
[4] = second compound 0.1 µM, first compound 1 µM
[5] = second compound 0.1 µM, first compound 3.16 µM
[6] = second compound 0.1 µM, first compound 10 µM
[7] = second compound 0.316 µM, first compound 0.0316 µM
[8] = second compound 0.316 µM, first compound 0.1 µM
[9] = second compound 0.316 µM, first compound 0.316 µM
[10] = second compound 0.316 µM, first compound 1 µM
[11] = second compound 0.316 µM, first compound 3.16 µM
[12] = second compound 0.316 µM, first compound 10 µM
[13] = second compound 1 µM, first compound 0.0316 µM
[14] = second compound 1 µM, first compound 0.1 µM
[15] = second compound 1 µM, first compound 0.316 µM
[16] = second compound 1 µM, first compound 1 µM
[17] = second compound 1 µM, first compound 3.16 µM
[18] = second compound 1 µM, first compound 10 µM
[19] = second compound 3.16 µM, first compound 0.0316 µM
[20] = second compound 3.16 µM, first compound 0.1 µM
[21] = second compound 3.16 µM, first compound 0.316 µM
[22] = second compound 3.16 µM, first compound 1 µM
[23] = second compound 3.16 µM, first compound 3.16 µM
[24] = second compound 3.16 µM, first compound 10 µM
[25] = second compound 10 µM, first compound 0.0316 µM
[26] = second compound 10 µM, first compound 0.1 µM
[27] = second compound 10 µM, first compound 0.316 µM
[28] = second compound 10 µM, first compound 1 µM
[29] = second compound 10 µM, first compound 3.16 µM
[30] = second compound 10 µM, first compound 10 µM

SMILES: CC1(C)CCC(CN2CCN(c3ccc(C(=O)NS(=O)(=O)c4ccc(NCC5CCOCC5)c([N+](=O)[O-])c4)c(Oc4cnc5[nH]ccc5c4)c3)CC2)=C(c2ccc(Cl)cc2)C1 + Cc1cncc(-c2nc(NCCc3c[nH]c4ccccc34)c3ncn(C(C)C)c3n2)c1
- IC50 (second compound 0.1 µM): > 10000 nM
- IC50 (second compound 0.316 µM): > 10000 nM
- IC50 (second compound 1 µM): > 10000 nM
- IC50 (second compound 3.16 µM): > 10000 nM
- IC50 (second compound 10 µM): < 31.6 nM
- viability, T/C [1]: 107%
- viability, T/C [2]: 123%
- viability, T/C [3]: 117%
- viability, T/C [4]: 109%
- viability, T/C [5]: 113%
- viability, T/C [6]: 93.3%
- viability, T/C [7]: 117%
- viability, T/C [8]: 118%
- viability, T/C [9]: 119%
- viability, T/C [10]: 129%
- viability, T/C [11]: 102%
- viability, T/C [12]: 93.8%
- viability, T/C [13]: 118%
- viability, T/C [14]: 105%
- viability, T/C [15]: 109%
- viability, T/C [16]: 103%
- viability, T/C [17]: 102%
- viability, T/C [18]: 97.3%
- viability, T/C [19]: 65.4%
- viability, T/C [20]: 71.9%
- viability, T/C [21]: 74.4%
- viability, T/C [22]: 76.8%
- viability, T/C [23]: 67.4%
- viability, T/C [24]: 70.8%
- viability, T/C [25]: 5.05%
- viability, T/C [26]: 3.29%
- viability, T/C [27]: 6.81%
- viability, T/C [28]: 6.55%
- viability, T/C [29]: 6.02%
- viability, T/C [30]: 23.1%

SMILES: CCN(c1cc(-c2ccc(CN3CCOCC3)cc2)cc(C(=O)NCc2c(C)cc(C)[nH]c2=O)c1C)C1CCOCC1 + Cc1cncc(-c2nc(NCCc3c[nH]c4ccccc34)c3ncn(C(C)C)c3n2)c1
- IC50 (second compound 0.1 µM): > 3000 nM
- IC50 (second compound 0.316 µM): > 3000 nM
- IC50 (second compound 1 µM): > 3000 nM
- IC50 (second compound 3.16 µM): > 3000 nM
- IC50 (second compound 10 µM): < 9.49 nM
- viability, T/C (second compound 0.1 µM, first compound 0.00949 µM): 121%
- viability, T/C (second compound 0.1 µM, first compound 0.03 µM): 119%
- viability, T/C (second compound 0.1 µM, first compound 0.0949 µM): 112%
- viability, T/C (second compound 0.1 µM, first compound 0.3 µM): 121%
- viability, T/C (second compound 0.1 µM, first compound 0.949 µM): 120%
- viability, T/C (second compound 0.1 µM, first compound 3 µM): 131%
- viability, T/C (second compound 0.316 µM, first compound 0.00949 µM): 125%
- viability, T/C (second compound 0.316 µM, first compound 0.03 µM): 120%
- viability, T/C (second compound 0.316 µM, first compound 0.0949 µM): 128%
- viability, T/C (second compound 0.316 µM, first compound 0.3 µM): 131%
- viability, T/C (second compound 0.316 µM, first compound 0.949 µM): 131%
- viability, T/C (second compound 0.316 µM, first compound 3 µM): 138%
- viability, T/C (second compound 1 µM, first compound 0.00949 µM): 113%
- viability, T/C (second compound 1 µM, first compound 0.03 µM): 118%
- viability, T/C (second compound 1 µM, first compound 0.0949 µM): 113%
- viability, T/C (second compound 1 µM, first compound 0.3 µM): 114%
- viability, T/C (second compound 1 µM, first compound 0.949 µM): 126%
- viability, T/C (second compound 1 µM, first compound 3 µM): 127%
- viability, T/C (second compound 3.16 µM, first compound 0.00949 µM): 75.8%
- viability, T/C (second compound 3.16 µM, first compound 0.03 µM): 73.8%
- viability, T/C (second compound 3.16 µM, first compound 0.0949 µM): 79.2%
- viability, T/C (second compound 3.16 µM, first compound 0.3 µM): 73.5%
- viability, T/C (second compound 3.16 µM, first compound 0.949 µM): 74.4%
- viability, T/C (second compound 3.16 µM, first compound 3 µM): 76.9%
- viability, T/C (second compound 10 µM, first compound 0.00949 µM): 16%
- viability, T/C (second compound 10 µM, first compound 0.03 µM): 14.8%
- viability, T/C (second compound 10 µM, first compound 0.0949 µM): 23.9%
- viability, T/C (second compound 10 µM, first compound 0.3 µM): 14.8%
- viability, T/C (second compound 10 µM, first compound 0.949 µM): 4.25%
- viability, T/C (second compound 10 µM, first compound 3 µM): 0.53%

SMILES: Cn1ncnc1C1c2n[nH]c(=O)c3cc(F)cc(c23)NC1c1ccc(F)cc1 (stereo not given) + Cc1cncc(-c2nc(NCCc3c[nH]c4ccccc34)c3ncn(C(C)C)c3n2)c1
- IC50 (second compound 0.1 µM): > 100 nM
- IC50 (second compound 0.316 µM): > 100 nM
- IC50 (second compound 1 µM): > 100 nM
- IC50 (second compound 3.16 µM): > 100 nM
- IC50 (second compound 10 µM): < 0.316 nM
- viability, T/C (second compound 0.1 µM, first compound 0.000316 µM): 122%
- viability, T/C (second compound 0.1 µM, first compound 0.001 µM): 120%
- viability, T/C (second compound 0.1 µM, first compound 0.00316 µM): 120%
- viability, T/C (second compound 0.1 µM, first compound 0.01 µM): 117%
- viability, T/C [1]: 120%
- viability, T/C [2]: 115%
- viability, T/C (second compound 0.316 µM, first compound 0.000316 µM): 117%
- viability, T/C (second compound 0.316 µM, first compound 0.001 µM): 119%
- viability, T/C (second compound 0.316 µM, first compound 0.00316 µM): 110%
- viability, T/C (second compound 0.316 µM, first compound 0.01 µM): 116%
- viability, T/C [7]: 111%
- viability, T/C [8]: 116%
- viability, T/C (second compound 1 µM, first compound 0.000316 µM): 112%
- viability, T/C (second compound 1 µM, first compound 0.001 µM): 111%
- viability, T/C (second compound 1 µM, first compound 0.00316 µM): 118%
- viability, T/C (second compound 1 µM, first compound 0.01 µM): 99.7%
- viability, T/C [13]: 105%
- viability, T/C [14]: 119%
- viability, T/C (second compound 3.16 µM, first compound 0.000316 µM): 76.6%
- viability, T/C (second compound 3.16 µM, first compound 0.001 µM): 77.5%
- viability, T/C (second compound 3.16 µM, first compound 0.00316 µM): 78.7%
- viability, T/C (second compound 3.16 µM, first compound 0.01 µM): 75.8%
- viability, T/C [19]: 72.8%
- viability, T/C [20]: 80.4%
- viability, T/C (second compound 10 µM, first compound 0.000316 µM): 19.2%
- viability, T/C (second compound 10 µM, first compound 0.001 µM): 19.2%
- viability, T/C (second compound 10 µM, first compound 0.00316 µM): 18.9%
- viability, T/C (second compound 10 µM, first compound 0.01 µM): 17.7%
- viability, T/C [25]: 17.4%
- viability, T/C [26]: 21.4%

SMILES: NS(=O)(=O)OCC1CC(n2ccc3c(NC4CCc5ccccc54)ncnc32)CC1O (stereo not given) + Cc1cncc(-c2nc(NCCc3c[nH]c4ccccc34)c3ncn(C(C)C)c3n2)c1
- IC50 (second compound 0.1 µM): 639 nM
- IC50 (second compound 0.316 µM): 649 nM
- IC50 (second compound 1 µM): 581 nM
- IC50 (second compound 3.16 µM): 306 nM
- IC50 (second compound 10 µM): < 31.6 nM
- viability, T/C [1]: 96.8%
- viability, T/C [2]: 84.5%
- viability, T/C [3]: 74.8%
- viability, T/C [4]: 35%
- viability, T/C [5]: 10.5%
- viability, T/C [6]: 5.21%
- viability, T/C [7]: 100%
- viability, T/C [8]: 82.9%
- viability, T/C [9]: 75.8%
- viability, T/C [10]: 36%
- viability, T/C [11]: 8.3%
- viability, T/C [12]: 4.21%
- viability, T/C [13]: 103%
- viability, T/C [14]: 83.6%
- viability, T/C [15]: 74.2%
- viability, T/C [16]: 30.7%
- viability, T/C [17]: 8.16%
- viability, T/C [18]: 5.53%
- viability, T/C [19]: 71.9%
- viability, T/C [20]: 66%
- viability, T/C [21]: 50.1%
- viability, T/C [22]: 16.5%
- viability, T/C [23]: 3.65%
- viability, T/C [24]: 2.28%
- viability, T/C [25]: 6.13%
- viability, T/C [26]: 6.79%
- viability, T/C [27]: 1.4%
- viability, T/C [28]: 1.01%
- viability, T/C [29]: 0.49%
- viability, T/C [30]: 0.45%
